Measured values from patent publication US9428568B2, “Compositions and methods for modulating cell-cell fusion via intermediate-conductance calcium-activated potassium channels” (BOEHRINGER INGELHEIM INTERNATIONAL GMBH, priority 2008, dated 2016).
Entries after “also recorded” stand apart in the source; their conditions may differ. Like-named read-outs stand apart in the source and are kept apart here.

Experiments:
[1] = system: bone marrow-derived macrophages from WT mice; assay: Osteoclastogenesis / cell fusion of bone marrow-derived macrophages of WT mice under M-CSF+RANKL (TRAP+ osteoclast-like cells); format: cell-based, mouse
Excerpt: Bone marrow- and spleen-derived mouse osteoclasts. These cells were generated from four- to twelve-week-old sk4^+/+ and sk4^−/− mice as previously described (Cui et al. (2007) Proc. Natl. Acad. Sci. USA 104:14436-14441; Epub 2007 Aug. 28). Bone marrow and spleen cells were isolated, mechanically dissociated and cultured at a density of 1.33×10^6 cells per cm^2 in MEM containing 10% heat-inactivated fetal bovine serum (HyClone, Logan, Utah), 100 units/ml penicillin-streptomycin (Gibco Invitrogen, Carlsbad, Calif.), 1% MEM vitamins, 1% glutamine, and 30 ng/ml M-CSF (PeproTech, Inc. Rocky Hill, N.J.). RANKL (PeproTech, Inc.) was added at a concentration of 40 ng/ml. Media was changed every three days. To assess the formation of an actin ring, a landmark of osteoclast activity, cells were cultured in the presence of M-CSF (20 ng/ml) and RANKL (40 ng/ml) on glass slides for 8 days, fixed and reacted with phalloidin-Alexa 568 and Topro-3. To further assess resorptive activity, cells were cultured on Osteologic slides that are coated with artificial bone made of calcium-phosphate crystals. After 8 days, cells were lysed and the substrates stained with silver nitrate according to the supplier's instructions. The resorbed areas on slides were recorded by histomorphometry.

[2] = system: human PBMCs; assay: Human osteoclastogenesis / cell fusion of PBMCs under M-CSF+RANKL stimulation (TRAP+ osteoclast-like cells); format: cell-based; conditions: for IC50: PBMC, read-out: inhibition of cell fusion, IC50; for osteoclast number / osteoclast surface area: dose-dependent
Method: Human osteoclasts. These cells were generated using normal peripheral blood blood (Allcells, Emeryville, Calif.). Peripheral blood monocytes were isolated using Ficoll-Paque and cultured at a concentration of 3×10^6 cells/ml in MEME supplemented with 10% FCS, recombinant human M-CSF (25 ng/ml) and recombinant human RANKL (40 ng/ml). The medium was changed once a week.

[3] = target: SK4 channels (Homo sapiens, UniProt O15554); conditions: cited from earlier work
[4] = general statement in the definition of SK4 channels

NC(=O)C(c1ccccc1)(c1ccc(F)cc1)c1ccc(F)cc1 [ICA-17043, 2,2-bis(4-fluorophenyl)-2-phenylacetamide]
osteoclastogenesis (surface area of TRAP+ osteoclast-like cells, POC relative to no compound control) ([1]; bone marrow-derived macrophages of WT (SK4+/+) mice, FIGS. 7A-B, five replicates): attenuated osteoclastogenesis in a dose dependent manner; also recorded: prevent osteoclastogenesis in a dose-dependent manner
concentration at which cell fusion was significantly inhibited (TRAP-stained images) ([1]; bone marrow-derived macrophages of WT mice, FIG. 7C): 0.36 µM
human osteoclastogenesis in vitro (surface area of TRAP+ osteoclast-like cells, POC relative to no compound control) ([2]; FIGS. 10A-B, four replicates): inhibited human osteoclastogenesis in vitro in a dose-dependent manner; also recorded: prevent osteoclastogenesis in a dose-dependent manner
IC50 ([2]; FIGS. 10A-B): 0.3 µM
osteoclast number [2]: decreased
osteoclast surface area [2]: decreased

Clc1ccccc1C(c1ccccc1)(c1ccccc1)n1cccn1 [TRAM-34, 1-[(2-chlorophenyl)diphenylmethyl]-1H-pyrazole]
IC50 ([2]; FIGS. 10A-B): 0.8 µM
osteoclast number [2]: decreased
osteoclast surface area [2]: decreased

Clc1ccccc1C(c1ccccc1)(c1ccccc1)n1ccnc1 [clotrimazole, 1-[(2-chlorophenyl)-diphenylmethyl]-1H-imidazole]
block of SK4 channels [3]: blocked

CC(=O)N1CCN(c2ccc(OCC3COC(Cn4ccnc4)(c4ccc(Cl)cc4Cl)O3)cc2)CC1 (stereo not shown) [ketoconazole]
block of SK4 channels [3, 4]: not blocked

charybdotoxin
block of SK4 channels [3, 4]: blocked

iberiotoxin
block of SK4 channels [3, 4]: not blocked
